Entries after “also recorded” stand apart in the source; their conditions may differ.

For data set [1], the system named is MYC gene expression in Raji Burkitt's lymphoma cells. Put plainly: qRT PCR of MYC gene expression. Type of data set: cell-based. The conditions noted are these: Homo sapiens, mean, read-out: IC50, inhibition of MYC gene expression. How it is done: Regulation of MYC gene expression by BRD4 has been shown in models of Burkitt's lymphoma with inhibition of BRD4, leading to growth arrest (Mertz, 2011). Similarly, in a model of lung adenocarcinoma. BRD4 inhibition was also found to be antiproliferative; however, this effect was ascribed to FOSL1 down-regulation (Lockwood, 2012). […] (Tang, 2014). The effect of Compound A treatment on MYC FOSL1, and GLI1 gene expression was evaluated by quantitative reverse transcription polymerase chain reaction (qRT PCR).

The test system of data set [2] is COH71 TNBC PDX-derived model. Kind of data set: 3-D Matrigel colony formation, COH71. Type of data set: cell-based. The conditions noted are these: Homo sapiens, 7 or 14 days. How it is done: The effect of Compound A on colony formation in four PDX-derived breast cancer models was assessed using a 3-D Matrigel-based in vitro culture system. Compound A was tested at concentrations ranging from either 0.008 μM to 5 μM or 0.0016 μM to 1 μM in 5-fold increments. Colony formation was assessed after 7 days or 14 days of treatment by quantifying colony numbers by microscopy. […] The overall mean for the three TNBC models was 0.11±0.04 μM.

Data set [3] has as its system MYC expression in COH70 TNBC PDX tumor. Kind of data set: MYC down-regulation in COH70 tumors in mice. Type of data set: in vivo. How it is done:
(§1) Corresponding tumor concentrations of Compound A were determined in the COH70 model at 2, 4, and 8 hrs post-dose. Maximally-measured tumor levels of Compound A were at 2 hr post-dose and were […] and 6.7±1.7 μM at 2 mg/kg and 10 mg/kg, respectively. Modulation of MYC expression levels correlated with intra-tumor concentrations of Compound A.

A short description of data set [4]: Tumor concentrations in COH70 model. Type of data set: in vivo, mice. The following applies: 2 hr post-dose. How it is done: as §1
The test system of data set [5] is COH70 TNBC PDX subcutaneous tumor. Kind of data set: Tumor growth inhibition in TNBC PDX model COH70. The conditions noted are these: Day 38. The class given is in vivo, NSG mice. How it is done: FIG. 1 is a graph showing dose-dependent tumor growth inhibition as measured by tumor volume in a TNBC PDX model, COH70, following dosing with Compound A (4-[2-(cyclopropylmethoxy)-5-methylsulfonylphenyl]-2-methylisoquinolin-1-one). Compound A dosing by mouth (PO) once daily for 3 consecutive days, followed by 4 days off (3×/week); —— Vehicle; - - - - Compound A 12.5 mg/kg PO 3×/week; —— —— Compound A 16 mg/kg PO 3×/week; - —— - —— Compound A 20 mg/kg PO 3×/week; SEM is the standard error of the mean.

Data set [6] relates to GBM15 GBM PDX subcutaneous tumor. Put plainly: Tumor growth inhibition in GBM PDX model GBM15. The class given is in vivo, mice. The conditions noted are these: Day 29. How it is done:
In a GBM PDX subcutaneous model. […] Mice bearing tumors were dosed orally QD on several schedules with the cumulative weekly Compound A dose on each schedule equal to 75 mg/kg.

The nature of data set [7]: Human PK prediction by allometric scaling. The following applies: assumption used for the human prediction. An excerpt: As described herein, a battery of in vitro and in vivo studies have been conducted to characterize the absorption. PK, distribution, metabolism and elimination of Compound A. Robust and reproducible bioanalytical methods for the quantitation of Compound A levels were developed and used in PK and toxicokinetic studies. Human PK parameters and exposures were predicted using allometric scaling.

Data set [8] is described as follows: Plasma protein binding, preclinical species. The class given is in vitro ADME. The following applies: plasmas of preclinical species.
The subject of another data set is CYP1A2. Kind of data set: CYP1A2 induction in hepatocytes. Type of data set: in vitro ADME. The conditions noted are these: up to 10 μM. An excerpt:
Compound A has minimal potential to cause drug-drug interactions with co-administered drugs that are CYP substrates.

Data set [9] is described as follows: Excretion of intact drug after IV administration in rats. Type of data set: in vivo. The following applies: average.
Data set [10] is described as follows: Cardiovascular and respiratory safety pharmacology in conscious dogs. The class given is in vivo. The conditions noted are these: conscious Beagle dogs; GLP 4-week study. How it is done: Safety pharmacology evaluations were performed to determine the potential cardiovascular and respiratory effects of Compound A in conscious Beagle dogs as part of the GLP 4-week repeat-dose toxicity study.

Data set [11] concerns PA0165 pancreatic xenograft. Put plainly: Pancreatic xenograft PA0165, Compound A and Romidepsin. Type of data set: in vivo, NSG mice. How it is done:
3/4 is 3 days on and 4 days off; Q4D is once every 4 days; Q7D is once every 7 days; —— Control; - - - - Compound A 25 mg/kg, 3/4; - —— - —— Romidepsin 1.5 mg/kg Q4D×3; —— —— Compound A 25 mg/kg. 3/4 combined with Romidepsin 1.5 mg/kg Q7D; - - - Compound A 25 mg/kg, 3/4 combined with Romidepsin 0.75 mg/kg Q7D. Tumor volumes were plotted as mean±standard error of the mean (SEM).
3/4 is 3 days on and 4 days off; Q4D is once every 4 days. —— Control; - - - - Compound A at 25 mg/kg, 3/4; - —— - —— Romidepsin 1.5 mg/kg Q4D×3; —— —— Compound A 25 mg/kg, 3/4 combined with Romidepsin 1.5 mg/kg Q7D; - - - Compound A 25 mg/kg, 3/4 combined with Romidepsin 0.75 mg/kg Q7D.
Cohorts of 4-6 wk-old NSG mice bearing PA0165 were treated with Romidepsin at 1.5 mg/kg intravenous (IV)×3 Q4D; Compound A 25 mg/kg orally QD 3 days on then 4 days off; or with a combination of Compound A 25 mg/kg orally QD 3 days on then 4 days off and Romidepsin at 1.5 or 0.75 mg/kg IV Q7D. The treatment lasted 21 days.

The conditions of data set [12]: NSG, mouse, in vivo, 6 weeks.
The test system of the next data set is recombinant CYP enzymes. Put plainly: Metabolism by recombinant cytochrome P450 (CYP) enzymes. The class given is in vitro ADME. An excerpt:
No unique human metabolites were identified.

What is called IC50 is the point on the concentration scale where inhibition reaches its midpoint. What is called fraction unbound is the share of the substance not bound to proteins or other matrix. A lower fraction unbound goes with extensive binding. What is called TGI is how far tumour growth fell short of that in controls. As for `Cn1cc(-c2cc(S(C)(=O)=O)ccc2OCC2CC2)c2ccccc2c1=O` [Compound A, 4-[2-(cyclopropylmethoxy)-5-methylsulfonylphenyl]-2-methylisoquinolin-1-one], the IC50 in data set [1] came out at 60 nM; in [2], 180 ± 20 nM. Further, the “maximal suppression of MYC expression” value in [3] (2 mg/kg, at 2 hr, rebound to control by 8 hr) came out at 51.3%; in [3] (10 mg/kg, at 4 hr, no rebound by 24 hr), 63.4%. In [4] (2 mg/kg), this compound showed a maximally-measured tumor level of 1.3 ± 0.3 µM. For the same compound, in data set [4] (mouse, tumor, 10 mg/kg, read-out: maximally-measured tumor level), the concentration at 2 hr turned out to be 6.7 ± 1.7 µM. In addition, the “mean percent TGI” value worked out at 64% in data set [5] (12.5 mg/kg PO QD 3 days on/4 days off); 68% in [5] (16 mg/kg PO QD 3 days on/4 days off); 72% in data set [5] (20 mg/kg PO QD 3 days on/4 days off); 65% in [6] (15 mg/kg PO QD 5 days on/2 off (5/2)); 65% in data set [6] (25 mg/kg PO QD 3 days on/4 off (3/4)); 70% in data set [6] (37.5 mg/kg PO QD 2 days on/5 off (2/5)). Also, the “oral bioavailability, average observed in pre-clinical species” value in data set [7] is given as 62%. The fraction unbound in data set [8] was 0.067 to 0.101. In the data set on CYP1A2, the “induction of CYP1A2” value was “not an inducer; also recorded: did not induce”. For the same compound, the “dose excreted intact in bile or urine” value in data set [9] is recorded as 0.9 % of the dose. Moreover, in [10], the “effects on electrocardiograms, heart rate, or respiratory rate” value is “no Compound A-related effects”. Besides, the TGI in [11] (Compound A 25 mg/kg orally QD 3 days on/4 off alone, 21 days) came out at 38%. Moreover, the survival rate result in data set [11] (day 30, Compound A only group) is on record as “about 70%”. The “well tolerated daily dose” value in [12] is at most 25 mg/kg. Further, the “CYP enzymes capable of metabolizing” value in the data set on recombinant CYP enzymes is “CYP2C9, CYP2C19 and CYP3A4”.
